Test results reported in paper PMC4245162 (ACS Chemical Biology, 2014).

Target: T1, SETD8 (Homo sapiens, UniProt Q9NQR1)
T1 sequence (Q9NQR1 191-352 isoform Q9NQR1-2): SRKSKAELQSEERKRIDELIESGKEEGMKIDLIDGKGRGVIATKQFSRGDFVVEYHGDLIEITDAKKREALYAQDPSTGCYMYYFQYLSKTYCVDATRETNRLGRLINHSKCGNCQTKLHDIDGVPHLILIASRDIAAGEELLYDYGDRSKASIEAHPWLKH
Experiment: secondary radiometric filter paper assay, SETD8
Assay type: biochemical
Conditions: read-out: IC50 against SETD8; apparent IC50; SAM/peptide/enzyme = 0.75:1.5:1

IC50: 82 µM
Compound: O=C1C(SCCO)=C(SCCO)C(=O)c2ccccc21 [NSC95397]
